# pIC50: −log10 of the molar value.
# Molecular target: PIK3CA (human) (UniProt P42336)
# Experiment: Assessment of PIK3CA Kinase Activity
# Sequence of PIK3CA (human) (P42336 whole entry, looked up): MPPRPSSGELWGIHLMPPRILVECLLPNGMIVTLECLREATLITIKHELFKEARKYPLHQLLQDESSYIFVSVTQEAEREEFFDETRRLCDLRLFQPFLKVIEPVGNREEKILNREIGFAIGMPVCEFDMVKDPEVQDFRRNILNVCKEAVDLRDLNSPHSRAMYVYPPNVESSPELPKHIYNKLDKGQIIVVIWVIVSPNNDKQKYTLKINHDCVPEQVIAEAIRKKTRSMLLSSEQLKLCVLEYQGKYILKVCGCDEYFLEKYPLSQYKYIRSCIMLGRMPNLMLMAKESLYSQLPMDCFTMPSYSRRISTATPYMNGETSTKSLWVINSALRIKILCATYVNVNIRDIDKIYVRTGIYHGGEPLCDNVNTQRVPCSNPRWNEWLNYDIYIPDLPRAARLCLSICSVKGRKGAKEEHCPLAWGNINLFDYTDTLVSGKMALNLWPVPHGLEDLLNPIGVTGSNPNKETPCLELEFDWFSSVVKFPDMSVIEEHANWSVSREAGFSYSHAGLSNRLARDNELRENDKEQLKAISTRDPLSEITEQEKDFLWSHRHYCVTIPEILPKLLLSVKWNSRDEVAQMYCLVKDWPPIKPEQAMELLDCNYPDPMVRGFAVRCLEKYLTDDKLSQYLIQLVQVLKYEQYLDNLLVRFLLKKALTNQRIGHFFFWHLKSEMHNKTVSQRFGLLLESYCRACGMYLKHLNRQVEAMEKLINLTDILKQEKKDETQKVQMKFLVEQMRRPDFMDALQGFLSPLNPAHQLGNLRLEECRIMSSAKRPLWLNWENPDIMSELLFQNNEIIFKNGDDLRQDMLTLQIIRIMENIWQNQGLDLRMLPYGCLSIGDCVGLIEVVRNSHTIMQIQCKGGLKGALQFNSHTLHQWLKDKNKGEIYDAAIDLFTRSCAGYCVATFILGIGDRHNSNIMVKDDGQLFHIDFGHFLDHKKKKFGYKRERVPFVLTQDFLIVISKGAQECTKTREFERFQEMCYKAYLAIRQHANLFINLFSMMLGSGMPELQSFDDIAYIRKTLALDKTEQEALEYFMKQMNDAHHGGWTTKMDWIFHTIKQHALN
row,SMILES,pIC50
1,O=C(c1nc2c(s1)CCOc1cc(-c3cn[nH]c3)ccc1-2)N1CCN(C(=O)[C@H]2CCCO2)CC1,> 6.00
2,CC(C)n1ncnc1-c1nc2c(s1)CCOc1cc(C3CCN(CC(=O)N(C)C)CC3)ccc1-2,> 6.00
3,OCCn1cc(-c2ccc3c(c2)OCCc2sc(-c4ncnn4CC(F)(F)F)nc2-3)cn1,> 6.00
4,CC(C)n1nc(N)nc1-c1nc2c(s1)CCOc1cc(F)ccc1-2,> 6.00
5,CN1CCN(c2ccc(-c3ccc4c(n3)-c3sc(-c5ncnn5-c5ccc(F)cc5F)cc3CCO4)cn2)CC1,> 6.00
6,Fc1ccc(-n2ncnc2-c2cc3c(s2)-c2nc(N4CCCNCC4)ccc2OCC3)c(F)c1,> 6.00
7,O=C(c1nc2c(s1)CCOc1cc(-c3cn[nH]c3)ccc1-2)N1CCN(C(=O)C2CC2)CC1,> 6.00
8,CC(C)n1ncnc1-c1nc2c(s1)CCOc1cc(C3CN(S(C)(=O)=O)C3)ccc1-2,> 6.00
9,O=C(c1nc2c(s1)CCOc1cc(-c3cn[nH]c3)ccc1-2)N1CCC[C@@H](CO)C1,> 6.00
10,CC(C)n1ncnc1-c1nc2c(s1)CCOc1cc(C3CN(CC(=O)NCC(C)(C)O)C3)ccc1-2,> 6.00
11,Cc1ccc(-c2ccc3c(n2)-c2sc(-c4ncnn4-c4ccc(F)cc4F)cc2CCO3)cn1,> 6.00
12,COCc1nc(-c2nc3c(s2)CCOc2ccccc2-3)n(C(C)C)n1,> 6.00
13,CN(CCc1ccccn1)C(=O)c1nc2c(s1)CCOc1cc(-c3cn[nH]c3)ccc1-2,> 6.00
14,COCCNC(=O)c1ccc2c(c1)OCCc1sc(-c3ncnn3C(C)C)nc1-2,> 6.00
15,CC(O)c1ccc2c(c1)OCCc1sc(-c3ncnn3CC(F)(F)F)nc1-2 (stereo unspecified),> 6.00
16,O=S1(=O)CCN(c2ccc3c(n2)-c2sc(-c4ncnn4-c4ccc(F)cc4F)cc2CCO3)CC1,> 6.00
17,CN(C(=O)c1cc2c(s1)-c1ccc(C(=O)NCCS(C)(=O)=O)cc1OCC2)c1cc(C(=O)N2CCNCC2)ccc1Cl,> 6.00
18,CC1(C)C(=O)NC(=O)N1c1nc2c(s1)CCOc1cc(C3CCNCC3)ccc1-2,> 6.00
19,CN(C)CCCc1ccc2c(n1)-c1sc(-c3ncnn3-c3ccc(F)cc3F)cc1CCO2,> 6.00
20,CC(C)(O)Cn1cc(-c2ccc3c(c2)OCCc2sc(-c4nccn4CC(F)(F)F)nc2-3)cn1,> 6.00
21,CN(C)C1CCN(C(=O)c2nc3c(s2)CCOc2cc(-c4cn[nH]c4)ccc2-3)CC1,> 6.00
22,O=C(c1ccccc1)N1CCN(C(=O)c2nc3c(s2)CCOc2cc(-c4cn[nH]c4)ccc2-3)CC1,> 6.00

row,SMILES,pIC50
1,CC(C)c1nn(C)c(=O)n1-c1nc2c(s1)CCOc1cc(-c3cnn(CCO)c3)ccc1-2,> 6.00
2,CC(C)n1ncnc1-c1nc2c(s1)CCOc1cc(CNc3ccon3)ccc1-2,> 6.00
3,CC(C)n1ncnc1-c1nc2c(s1)CCOc1cc(C3CCN(CCO)CC3)ccc1-2,> 6.00
4,OCCNc1ccc(-c2ccc3c(n2)-c2sc(-c4ncnn4-c4ccc(F)cc4F)cc2CCO3)cn1,> 6.00
5,CC(C)N1CC[C@H](CN(C)C(=O)c2nc3c(s2)CCOc2cc(-c4cn[nH]c4)ccc2-3)C1,> 6.00
6,O=C(c1nc2c(s1)CCOc1cc(-c3cn[nH]c3)ccc1-2)N1CCCCCCC1,> 6.00
7,COCCn1cccc(-c2ccc3c(c2)-c2nc(-c4ncnn4C(C)C)sc2CCO3)c1=O,> 6.00
8,CC(O)CNc1ccc2c(n1)-c1sc(-c3ncnn3-c3ccc(F)cc3F)cc1CCO2 (stereo unspecified),> 6.00
9,Cc1nc(-c2nc3c(s2)CCOc2cc(-c4cncn4CCO)ccc2-3)n(C(C)C)n1,> 6.00
10,CC(C)n1ncnc1-c1nc2c(s1)CCOc1cc(C3CN(CC(=O)N4CCOCC4)C3)ccc1-2,> 6.00
11,CC(C)n1ncnc1-c1nc2c(s1)CCOc1ccc(-c3ccc(=O)n(C)c3)cc1-2,> 6.00
12,O=C(O)C1CCCN(C(=O)c2nc3c(s2)CCOc2cc(-c4cn[nH]c4)ccc2-3)C1 (stereo unspecified),> 6.00
13,CC(C)n1ncnc1-c1nc2c(s1)CCOc1ccc(C3CN(Cc4ccc(F)cc4F)C3)cc1-2,> 6.00
14,COCC(O)CN1CC(c2ccc3c(c2)OCCc2sc(-c4nc(C)nn4C(C)C)nc2-3)C1 (stereo unspecified),> 6.00
15,O=C(c1nc2c(s1)CCOc1cc(-c3cn[nH]c3)ccc1-2)N1CCCN(c2ccccn2)CC1,> 6.00
16,CN(C[C@H]1CCCO1)C(=O)c1nc2c(s1)CCOc1cc(-c3cn[nH]c3)ccc1-2,> 6.00
17,CC(C)n1ncnc1-c1nc2c(s1)CCOc1ccc(C3CN(S(=O)(=O)CCO)C3)cc1-2,> 6.00
18,C[C@@H]1CCCN(C(=O)c2nc3c(s2)CCOc2cc(-c4cn[nH]c4)ccc2-3)C1,> 6.00
19,CC(C)(C(=O)NCCO)n1cc(-c2ccc3c(c2)OCCc2sc(-c4ncnn4CC(F)(F)F)nc2-3)cn1,> 6.00
20,O=C(c1nc2c(s1)CCOc1cc(-c3cn[nH]c3)ccc1-2)N1CCN(c2cccnc2)CC1,> 6.00
21,C[C@H](O)C(=O)N1CC(Nc2ccc3c(n2)-c2sc(-c4ncnn4-c4ccc(F)cc4F)cc2CCO3)C1,> 6.00
22,CNC(=O)Cn1cccc(-c2ccc3c(c2)-c2nc(-c4ncnn4C(C)C)sc2CCO3)c1=O,> 6.00

row,SMILES,pIC50
1,O=C(c1nc2c(s1)CCOc1cc(-c3cn[nH]c3)ccc1-2)N1CCNCC1,> 6.00
2,CC(C)n1ncnc1-c1nc2c(s1)CCOc1cc(C3CN(Cc4ncco4)C3)ccc1-2,> 6.00
3,C[C@H](O)C(=O)N1CCN(c2ccc3c(n2)-c2sc(-c4ncnn4-c4ccc(F)cc4F)cc2CCO3)CC1,> 6.00
4,CN(C)CCNc1ccc(-c2ccc3c(n2)-c2sc(-c4ncnn4-c4ccc(F)cc4F)cc2CCO3)cn1,> 6.00
5,CC(C)(N)Cn1cc(-c2ccc3c(c2)OCCc2sc(-c4ncnn4CC(F)(F)F)nc2-3)cn1,> 6.00
6,CC(C)n1ncnc1-c1nc2c(s1)CCOc1cc(C3CN(CCS(=O)(=O)N(C)C)C3)ccc1-2,> 6.00
7,O=C(c1nc2c(s1)CCOc1cc(-c3cn[nH]c3)ccc1-2)N1CCCNCC1,> 6.00
8,Cc1nc(-c2nc3c(s2)CCOc2cc(-c4cn(CCO)cn4)ccc2-3)n(C(C)C)n1,> 6.00
9,Fc1ccc(-n2ncnc2-c2cc3c(s2)-c2nc(-c4ccc(NCCN5CCOCC5)nc4)ccc2OCC3)c(F)c1,> 6.00
10,CC(C)n1ncnc1-c1cc2c(s1)-c1ccc(C3CNC3)cc1OCC2,> 6.00
11,Fc1ccc(-n2ncnc2-c2cc3c(s2)-c2nc(N4CCN(CC(F)(F)F)CC4)ccc2OCC3)c(F)c1,> 6.00
12,O=C(c1nc2c(s1)CCOc1cc(-c3cn[nH]c3)ccc1-2)N1CC[C@@H](O)C1,> 6.00
13,CC(C)n1ncnc1-c1nc2c(s1)CCOc1ccc(C3CN(CC(C)(C)O)C3)cc1-2,> 6.00
14,Fc1ccc(-n2ncnc2-c2cc3c(s2)-c2nc(NC4CCOCC4)ccc2OCC3)c(F)c1,> 6.00
15,COCC1CCN(C(=O)c2nc3c(s2)CCOc2cc(-c4cn[nH]c4)ccc2-3)CC1,> 6.00
16,CC(=O)N(C)[C@@H]1CCN(C(=O)c2nc3c(s2)CCOc2cc(-c4cn[nH]c4)ccc2-3)C1,> 6.00
17,CNc1ccc(-c2ccc3c(c2)-c2nc(C(=O)N(CCO)C(C)C)sc2CCO3)cn1,> 6.00
18,CC(=O)N1CCC(N(CCO)C(=O)c2nc3c(s2)CCOc2cc(-c4cnn(CC(C)(C)O)c4)ccc2-3)CC1,> 6.00
19,CNC(=O)Cn1ccnc1-c1nc2c(s1)CCOc1cc(-c3cnn(CC(C)(C)O)c3)ccc1-2,> 6.00
20,Cc1cc(-c2ccc3c(n2)-c2sc(-c4ncnn4-c4ccc(F)cc4F)cc2CCO3)cnc1F,> 6.00
21,CC(C)n1ncnc1-c1nc2c(s1)CCOc1cc(C3CN(CC(F)(F)F)C3)ccc1-2,> 6.00
22,CN(CC(=O)N1CCOCC1)C(=O)c1nc2c(s1)CCOc1cc(-c3cn[nH]c3)ccc1-2,> 6.00

# — the Kinase Knowledgebase extract (Sharma et al. 2016)
